Reference: US20100184807A1, “Methods to inhibit tumor cell growth by using proton pump inhibitors” (Bio-Quant, Inc., priority 2008, published 2010)

Experiments:
Format in all cases: cell-based
UACC257 (melanoma) = test: MTT tumor cell growth assay; details: UACC257 cells, lansoprazole 1-100 μM, 48 hours
Protocol: (§1) In one study, adherent cells were plated approximately 16-24 hours before the day of the experiment in 180 μl growth media. On the day of the experiment, the plated adherent cells were analyzed and counted and suspension cells were plated in 180 μl growth media. 10× lansoprazole compounds and vehicle was prepared. The 10× lansoprazole compounds were prepared by diluting lansoprazole to final concentrations of 100 μM, 30 μM, 10 μM, 3 μM, and 1 μM. A vehicle was prepared by preparing a solution of PBS, equivalent to the volume used for 10 μM lansoprazole wherein the 1× solution constitutes ˜0.06% PBS. 10 μl of the various 10× lansoprazole solutions and the vehicle were added to the cells. The cells were incubated at 37° C., 5% CO2 for 48 hours. The media was then aspirated. The cell suspension was then spun at 1500 RPM for 10 minutes. The media was slowly removed. 200 μl of MTT solution was added to each well with a concentration of 0.863 mg/ml MTT in the growth media. The cells were incubated at 37° C., 5% CO2 for 4 hours and the medium is then aspirated. The plate containing the cell suspension was then spun at 1500 RPM for 10 minutes. The media was slowly removed using a multichannel pipettor. 100 μl of DMSO was then added to each well. The cells were incubated at 37° C., 5% CO2 for 5 minutes and the absorbance was obtained at 560 nm using a Dynex Opsys MR plate reader. The cells used for this procedure were the following cell lines: IGROV1 (ovarian cancer); OVCAR 8 (ovarian cancer); ES-2 (ovarian cancer); CAOV3 (ovarian cancer); OVCAR5 (ovarian cancer); SUDHL4 (lymphoma); RPMI8226 (myeloma); RPMI6666 (Hodgkin's lymphoma); NC37 (lymphoma); GDM-1 (leukemia); MC/CAR (prostate cancer); DU-145 (prostate cancer), J45-01 (leukemia), MOLT3 (leukemia), HUT78, J-gamma-1 (leukemia), MCF7 […], COL0205 (colon cancer), HL60 CLONE 15 (leukemia), T47D (breast cancer), P116 (intestinal cancer), KU812 (leukemia), SW620 (colon cancer), MK92-M1 (lymphoma), MV-4-11 (leukemia), HS578T (breast cancer), HT29 (colon cancer), HCT 116 (colon cancer), CAKI-1 (kidney cancer), A549 (lung cancer), H460 (lung cancer), A3 (colon cancer), MDA-MB231 […], MALME 3M (melanoma), RXF393 (kidney cancer), RS4.11 (leukemia), PC3 (prostate cancer), OVCAR3 (ovarian cancer), MDA-MB435 (melanoma), HUT102 (lymphoma), HL60 (leukemia), CCRF-CEM (leukemia), HUT78 (lymphoma), 786-O (kidney cancer), ACHN (kidney cancer), A498 (kidney cancer), H226 (lung cancer), H522 (lung cancer), HOP92 (lung cancer), SNB 19 (brain cancer), OVCAR4 (ovarian cancer), H9 (lymphoma), UO-31 (kidney cancer), HH (lymphoma), DAUDI (leukemia), LOXIMVI (melanoma), NAMALWA (lymphoma), EKVX (lung cancer), DOHH2 (lymphoma), SNB75 (brain cancer), SKMEL28 (melanoma), SKMEL5 (melanoma), SKMEL2 (melanoma), M14 (melanoma), UACC 257 (melanoma), H332M (lung cancer), KM12 (colon cancer), HCC2998 (colon cancer), G401 (kidney cancer), RS1184 (lymphoma), MC116 (leukemia), MOLT4 (leukemia), JM1 (liver cancer), HOP-62 (lung cancer), HCT-15 (colon cancer), SF-539 (brain cancer), SF295 (brain cancer), ST486 (lymphoma), U251 (brain cancer), and UACC-62 (melanoma).

H9 (lymphoma) = test: MTT tumor cell growth assay; details: H9 cells, lansoprazole 1-100 μM, 48 hours
Protocol: as §1

JMI = test: MTT tumor cell growth assay; details: JMI cells, lansoprazole 1-100 μM, 48 hours
Protocol: as §1

HH (lymphoma) = test: MTT tumor cell growth assay; details: HH cells, lansoprazole 1-100 μM, 48 hours
Protocol: as §1

MC116 (leukemia) = test: MTT tumor cell growth assay; details: MC116 cells, lansoprazole 1-100 μM, 48 hours
Protocol: as §1

EKVX (lung cancer) = test: MTT tumor cell growth assay; details: EKVX cells, lansoprazole 1-100 μM, 48 hours
Protocol: as §1

OVCAR4 (ovarian cancer) = test: MTT tumor cell growth assay; details: OVCAR4 cells, lansoprazole 1-100 μM, 48 hours
Protocol: as §1

HCT-15 (colon cancer) = test: MTT tumor cell growth assay; details: HCT-15 cells, lansoprazole 1-100 μM, 48 hours
Protocol: as §1

A498 (kidney cancer) = test: MTT tumor cell growth assay; details: A498 cells, lansoprazole 1-100 μM, 48 hours
Protocol: as §1

HL60 clone 15 (leukemia) = test: MTT tumor cell growth assay; details: HL60 clone 15 cells, lansoprazole 1-100 μM, 48 hours
Protocol: as §1

HOP-62 (lung cancer) = test: MTT tumor cell growth assay; details: HOP-62 cells, lansoprazole 1-100 μM, 48 hours
Protocol: as §1

M14 (melanoma) = test: MTT tumor cell growth assay; details: M14 cells, lansoprazole 1-100 μM, 48 hours
Protocol: as §1

IGROV 1 (ovarian cancer) = test: MTT tumor cell growth assay; details: IGROV 1 cells, lansoprazole 1-100 μM, 48 hours
Protocol: as §1

RS4.11 (leukemia) = test: MTT tumor cell growth assay; details: RS4.11 cells, lansoprazole 1-100 μM, 48 hours
Protocol: as §1

HT29 (colon cancer) = test: MTT tumor cell growth assay; details: HT29 cells, lansoprazole 1-100 μM, 48 hours
Protocol: as §1

[1] = MTT tumor cell growth assay; details: MCF7 cells, lansoprazole 1-100 μM, 48 hours
Protocol: as §1

ES-2 (ovarian cancer) = test: MTT tumor cell growth assay; details: ES-2 cells, lansoprazole 1-100 μM, 48 hours
Protocol: as §1

SKMEL28 (melanoma) = test: MTT tumor cell growth assay; details: SKMEL28 cells, lansoprazole 1-100 μM, 48 hours
Protocol: as §1

Measured: tumor cell growth reduction

Cc1c(OCC(F)(F)F)ccnc1C[S+]([O-])c1nc2ccccc2[nH]1 (stereo not drawn) [lansoprazole]
significant tumor cell growth reduction: all assays above
